{"source": "paper PMC10600247", "about": "“Impact of C- and N-terminal protection on the stability, metal chelation and antimicrobial properties of calcitermin” (Scientific Reports, 2023)", "key": {"[1]": {"assay": "in vitro", "conditions": "human, pH 7.4", "experimental": "Each peptide (C = 1·10^–4 M) and metal complex (metal:ligand ratio 1:1) was incubated in a sample containing 1 ml of human plasma (obtained as a pool of 40 individuals from the University Hospital of Ferrara) and 1 ml of ammonium acetate buffer (pH 7.4) at 37 °C. L-phenylalaninol is added as internal standard. At regular time intervals, 200 μl aliquots were taken and enzymatic reaction was blocked by adding 300 μl of HClO4 0.5 M. The sample was then centrifugated for 6 min at 14,000 × g. The supernatant was then filtered and analysed by HPLC. The analytical column was an Agilent Poroshell 120 SB-C18 (4.6 × 100 mm, 2.7 μm, pore size 120 Å). Flow rate = 0.5 ml/min, mobile phase H2O + 0.1% v/v TFA, linear gradient from 0 to 60% of acetonitrile + 0.1% v/v TFA over 30 min for the elution of peptides, temperature 25 °C, detection wavelength 210 nm. […] Informed consent was obtained from all subjects and/or their legal guardian(s) prior to the donation of blood samples. All experimental protocols were approved by the National Research and Research Transversal Processes boards at University of Ferrara. All methods were carried out in accordance with relevant guidelines and regulations."}, "[2]": {"tested_on": "C. albicans (ATCC 10231)", "assay": "In vitro antifungal CFU assay", "assay_type": "cell-based, Candida albicans", "conditions": "pH 5.4; for mean CFU number ± S.D.: per 0.1 mL", "experimental": "(§1) All microbes were grown at 37 °C in Tryptic Soy Broth (TSB; Biolife, Milan, Italy) or Tryptic Soy Agar plates (TSA, Biolife, Milan, Italy). Peptides were tested at a final concentration C = 0.128, 0.064, 0.032 mg/mL, in the presence or absence of ZnCl2 or CuCl2, at a M:L molar ratio 0.9:1. Briefly, all the microbes were expanded in TSB at 37 °C under agitation for 12 h and then sub-cultured by 1:10 dilution in TSB under the same conditions until reaching OD600nm = 0.3–0.4, as measured by spectrophotometric reading using a GENESYS 10S UV–Vis spectrophotometer (Thermo Scientific, Milan, Italy), corresponding to 0.9–1.2 × 10^7 colony forming units (CFU) per mL, 1.5–2 × 10^8 CFU/mL and 2.4–3.2 × 10^8 CFU/mL, for C. albicans, S. aureus and E. coli respectively. The cultures were then centrifuged at 4500 rpm for 10 min in a SL 8 centrifuge (TX-150 Rotor) (Thermo Scientific, Milan, Italy), and the cellular pellets were washed with PBS pH 5.4. Pelletized cultures were then suspended in 10 mL of PBS pH 5.4, then the suspensions were diluted to a final concentration of 10^4 CFU/mL. Aliquots of 100 µl (corresponding to 10^3 CFU) were seeded in each well of a 96-wells plate. 3 µl of TSB at pH 5.4 were added to each well to obtain a final 1.5% TSB concentration in the culture medium. Peptides were serially diluted in PBS pH 5.4 to C = 0.257, 0.128, and 0.064 mg/mL. ZnCl2 and CuCl2 solutions were added where requested to obtain a M:L ratio 0.9:1. 100 µl of the prepared peptides ± ZnCl2/CuCl2 solutions were then added to each well, obtaining the final 0.128, 0.064 and 0.032 mg/mL peptide concentrations in a total 0.2 mL volume. PBS alone and PBS + ZnCl2/CuCl2 solutions were included as controls. The plates were incubated at 37 °C on a platform rocker with slow stirring for 3 and 24 h. At the end of the incubation times, 100 µl aliquots were taken from each sample and diluted in PBS pH 5.4 to be seeded on TSA plates. Specifically, aliquots were diluted 1:10 at 3 h, and 1:200, 1:100,000 and 1:10 at 24 h, for C. albicans, E. coli, and S. aureus respectively. After incubation for 24 h at 37 °C, grown CFUs were enumerated. Samples were assayed in triplicate in two independent experiments. Student’s t-test was used for the evaluation of significance in biological tests; a p value ≤ 0.05 was considered significant."}, "[3]": {"tested_on": "S. aureus (ATCC 25293)", "assay": "In vitro anti-S. aureus CFU assay", "assay_type": "cell-based, Staphylococcus aureus", "conditions": "3 h, pH 5.4; for mean CFU number ± S.D.: per 0.1 mL", "experimental": "as §1"}, "[4]": {"conditions": "peptide 0.032 mg/mL + CuCl2 (0.9:1), 3 h"}, "[5]": {"conditions": "peptide 0.032 mg/mL + CuCl2 (0.9:1), 24 h"}, "[6]": {"conditions": "peptide 0.032 mg/mL + ZnCl2 (0.9:1), 3 h"}, "[7]": {"conditions": "peptide 0.032 mg/mL + ZnCl2 (0.9:1), 24 h"}, "[8]": {"conditions": "peptide 0.064 mg/mL + CuCl2 (0.9:1), 3 h"}, "[9]": {"conditions": "peptide 0.064 mg/mL + CuCl2 (0.9:1), 24 h"}, "[10]": {"conditions": "peptide 0.064 mg/mL + ZnCl2 (0.9:1), 3 h"}, "[11]": {"conditions": "peptide 0.128 mg/mL + CuCl2 (0.9:1), 3 h"}, "[12]": {"conditions": "peptide 0.128 mg/mL + CuCl2 (0.9:1), 24 h"}, "[13]": {"conditions": "peptide alone 0.032 mg/mL, 24 h"}, "[14]": {"conditions": "peptide alone 0.064 mg/mL, 24 h"}, "[15]": {"conditions": "peptide alone 0.128 mg/mL, 24 h"}, "[16]": {"conditions": "peptide 0.032 mg/mL + CuCl2 (0.9:1)"}, "[17]": {"conditions": "peptide 0.032 mg/mL + ZnCl2 (0.9:1)"}, "[18]": {"conditions": "peptide 0.064 mg/mL + CuCl2 (0.9:1)"}, "[19]": {"conditions": "peptide 0.064 mg/mL + ZnCl2 (0.9:1)"}}, "note": "Residues, ends and D or L forms follow the SMILES beside them."}
{"compound": "CC[C@H](C)[C@H](NC(=O)[C@H](C)NC(=O)[C@@H](N)C(C)C)C(=O)N[C@@H](C)C(=O)N[C@@H](CC(C)C)C(=O)N[C@@H](CCCCN)C(=O)N[C@@H](C)C(=O)N[C@@H](C)C(=O)N[C@@H](Cc1c[nH]cn1)C(=O)N[C@@H](Cc1ccc(O)cc1)C(=O)N[C@@H](Cc1c[nH]cn1)C(=O)N[C@H](C(=O)N[C@@H](Cc1c[nH]cn1)C(=O)N[C@@H](CCCCN)C(=O)N[C@@H](CCC(=O)O)C(N)=O)[C@@H](C)O", "note": "[L3, VAIALKAAHYHTHKE-NH2] (H-VAIALKAAHYHTHKE-NH2)", "values": [{"measurement": "half-life", "setting": "[1]", "value": "~20", "unit": "min"}, {"measurement": "CFU decrease/increase with respect to untreated controls", "setting": "[2]; [4]", "value": "+23%"}, {"measurement": "mean CFU number ± S.D.", "setting": "[2]; [4]", "value": "187 ± 20", "unit": "CFU"}, {"measurement": "CFU decrease/increase with respect to untreated controls", "setting": "[2]; [5]", "value": -19, "unit": "%"}, {"measurement": "mean CFU number ± S.D.", "setting": "[2]; [5]", "value": "2,042 ± 137 CFU"}, {"measurement": "CFU decrease/increase with respect to untreated controls", "setting": "[2]; [6]", "value": "+6%"}, {"measurement": "mean CFU number ± S.D.", "setting": "[2]; [6]", "value": "160 ± 25", "unit": "CFU"}, {"measurement": "CFU decrease/increase with respect to untreated controls", "setting": "[2]; [7]", "value": "+2%"}, {"measurement": "mean CFU number ± S.D.", "setting": "[2]; [7]", "value": "2,557 ± 251 CFU"}, {"measurement": "CFU decrease/increase with respect to untreated controls", "setting": "[2]; [8]", "value": "+59%"}, {"measurement": "mean CFU number ± S.D.", "setting": "[2]; [8]", "value": "241 ± 23", "unit": "CFU"}, {"measurement": "CFU decrease/increase with respect to untreated controls", "setting": "[2]; [9]", "value": -8, "unit": "%"}, {"measurement": "mean CFU number ± S.D.", "setting": "[2]; [9]", "value": "2,315 ± 546 CFU"}, {"measurement": "CFU decrease/increase with respect to untreated controls", "setting": "[2]; [10]", "value": -2, "unit": "%"}, {"measurement": "mean CFU number ± S.D.", "setting": "[2]; [10]", "value": "148 ± 22", "unit": "CFU"}, {"measurement": "mean CFU number ± S.D.", "setting": "[2]; peptide 0.064 mg/mL + ZnCl2 (0.9:1), 24 h", "value": "1,596 ± 145 CFU"}, {"measurement": "CFU decrease/increase with respect to untreated controls", "setting": "[2]; [11]", "value": "+53%"}, {"measurement": "mean CFU number ± S.D.", "setting": "[2]; [11]", "value": "230 ± 3", "unit": "CFU"}, {"measurement": "CFU decrease/increase with respect to untreated controls", "setting": "[2]; [12]", "value": -33, "unit": "%"}, {"measurement": "mean CFU number ± S.D.", "setting": "[2]; [12]", "value": "1,687 ± 111 CFU"}, {"measurement": "mean CFU number ± S.D.", "setting": "[2]; peptide 0.128 mg/mL + ZnCl2 (0.9:1), 3 h", "value": "71 ± 17", "unit": "CFU"}, {"measurement": "mean CFU number ± S.D.", "setting": "[2]; peptide 0.128 mg/mL + ZnCl2 (0.9:1), 24 h", "value": "605 ± 97", "unit": "CFU"}, {"measurement": "CFU decrease/increase with respect to untreated controls", "setting": "[2]; peptide alone 0.032 mg/mL, 3 h", "value": "+25%"}, {"measurement": "mean CFU number ± S.D.", "setting": "[2]; peptide alone 0.032 mg/mL, 3 h", "value": "189 ± 23", "unit": "CFU"}, {"measurement": "CFU decrease/increase with respect to untreated controls", "setting": "[2]; [13]", "value": -10, "unit": "%"}, {"measurement": "mean CFU number ± S.D.", "setting": "[2]; [13]", "value": "2,263 ± 251 CFU"}, {"measurement": "CFU decrease/increase with respect to untreated controls", "setting": "[2]; peptide alone 0.064 mg/mL, 3 h", "value": "+20%"}, {"measurement": "mean CFU number ± S.D.", "setting": "[2]; peptide alone 0.064 mg/mL, 3 h", "value": "182 ± 27", "unit": "CFU"}, {"measurement": "CFU decrease/increase with respect to untreated controls", "setting": "[2]; [14]", "value": -12, "unit": "%"}, {"measurement": "mean CFU number ± S.D.", "setting": "[2]; [14]", "value": "2,204 ± 170 CFU"}, {"measurement": "CFU decrease/increase with respect to untreated controls", "setting": "[2]; peptide alone 0.128 mg/mL, 3 h", "value": -5, "unit": "%"}, {"measurement": "mean CFU number ± S.D.", "setting": "[2]; peptide alone 0.128 mg/mL, 3 h", "value": "144 ± 11", "unit": "CFU"}, {"measurement": "CFU decrease/increase with respect to untreated controls", "setting": "[2]; [15]", "value": -14, "unit": "%"}, {"measurement": "mean CFU number ± S.D.", "setting": "[2]; [15]", "value": "2,164 ± 101 CFU"}, {"measurement": "CFU decrease/increase with respect to untreated controls", "setting": "[3]; [16]", "value": "+6%"}, {"measurement": "mean CFU number ± S.D.", "setting": "[3]; [16]", "value": "187 ± 13", "unit": "CFU"}, {"measurement": "CFU decrease/increase with respect to untreated controls", "setting": "[3]; [17]", "value": -6, "unit": "%"}, {"measurement": "mean CFU number ± S.D.", "setting": "[3]; [17]", "value": "167 ± 22", "unit": "CFU"}, {"measurement": "CFU decrease/increase with respect to untreated controls", "setting": "[3]; [18]", "value": -2, "unit": "%"}, {"measurement": "mean CFU number ± S.D.", "setting": "[3]; [18]", "value": "173 ± 69", "unit": "CFU"}, {"measurement": "CFU decrease/increase with respect to untreated controls", "setting": "[3]; [19]", "value": -50, "unit": "%"}, {"measurement": "mean CFU number ± S.D.", "setting": "[3]; [19]", "value": "88 ± 18", "unit": "CFU"}, {"measurement": "mean CFU number ± S.D.", "setting": "[3]; peptide 0.128 mg/mL + CuCl2 (0.9:1)", "value": "94 ± 2", "unit": "CFU"}, {"measurement": "mean CFU number ± S.D.", "setting": "[3]; peptide 0.128 mg/mL + ZnCl2 (0.9:1)", "value": "48 ± 8", "unit": "CFU"}, {"measurement": "CFU decrease/increase with respect to untreated controls", "setting": "[3]; peptide alone 0.032 mg/mL", "value": -28, "unit": "%"}, {"measurement": "mean CFU number ± S.D.", "setting": "[3]; peptide alone 0.032 mg/mL", "value": "127 ± 64", "unit": "CFU"}, {"measurement": "mean CFU number ± S.D.", "setting": "[3]; peptide alone 0.064 mg/mL", "value": "101 ± 30", "unit": "CFU"}, {"measurement": "mean CFU number ± S.D.", "setting": "[3]; peptide alone 0.128 mg/mL", "value": "91 ± 12", "unit": "CFU"}]}
